Laboratory results from US4102884A, “14 β-Hydroxy 3-deoxycardenolides” (priority 1975, dated 1978).
Entries after “also recorded” stand apart in the source; their conditions may differ. Like-named read-outs stand apart in the source and are kept apart here.

Experiments:
heart = details: literature; cited from earlier work
ATP-ase = ATP-ase inhibition, methods of Okita et al (1973) and Kupchan et al (1964); assay type: biochemical, guinea pigs (brain); design: ATP-ase inhibition, % reversibility of inhibition: concentration or dose not given beside the values; details: for ATP-ase inhibition, comparison in words: compared with 3-deoxycannogenol and digoxin, or acetyl-strophanthidin; for ATP-ase inhibition, % reversibility of inhibition / ATP-ase inhibition, % inhibition at a 1×10^-4 molar concentration: Table 2
Protocol: (§1) The inotropic effects have been determined with spontaneously beating atrial preparations derived from guinea pigs. The ATP-ase was obtained from the brain of the same animal and the methods of Okita et al (1973) and of Kupchan et al (1964) were employed. The lethal dose in cats was determined by the method of Chen.

[1] = test system: spontaneously beating atrial preparations; experiment: Inotropic effect (increase in contractility) in spontaneously beating atrial preparations; design: species or system guinea pigs; details: for EC (50% increase in contractility) / EC (30% increase in contractility) / EC (80% increase in contractility): Cavia porcellus; for EC (50% increase in contractility): read-out: Molar concentration causing 50% increase in contractility; for inotropic effect, comparison in words: compared with digoxin and/or 3-deoxycannogenol; for arrhythmogenicity relative to digoxin, in words: inotropic tests; for EC (30% increase in contractility): read-out: Molar concentration causing 30% increase in contractility; for EC (80% increase in contractility): read-out: Molar concentration causing 80% increase in contractility
Protocol: as §1

[2] = cited from earlier work
[3] = Lipophilicity (statement in words); assay type: physicochemical
heart muscle = test system: heart muscle; design: species or system guinea pigs; details: decreasing order of number of washings; inotropic tests
Protocol: as §1

cats [4] = experiment: Lethal dose in cats, method of Chen; assay type: in vivo; details: compared with digoxin
Protocol: as §1

cats [5] = experiment: Emetic effects in cats, intravenous; assay type: in vivo; details: intravenous doses amounting to 1/10 and 1/100 of the lethal dose
[6] = Table I / Example 45, guinea pig atria
[7] = Table 2, preliminary biological tests, 30%

C[C@@H]1O[C@@H](OC2CC[C@@]3(CO)[C@@H](CC[C@@H]4[C@@H]3[C@@H](O)C[C@]3(C)[C@@H](C5=CC(=O)OC5)CC[C@]43O)C2)[C@H](O)[C@H](O)[C@H]1O (stereo partly drawn) [panoside]
cardiac activity, in words (heart): high cardiac activity; also recorded: highly potent

C[C@]12CCCC[C@H]1CC[C@@H]1[C@@H]2C[C@@H](O)[C@]2(C)[C@@H](C3=CC(=O)OC3)CC[C@]12O [3-deoxydigoxigenin]
ATP-ase inhibition, comparison in words (ATP-ase): comparable biological and inotropic effects and the ATP-ase inhibition as the 19-deoxygenated steroid acetyl-strophanthidin
IC50 (ATP-ase; guinea pig brain ATP-ase, read-out: Molar concentration causing 50% ATP-ase inhibition): 68 µM
EC (50% increase in contractility) [1, 6]: 7.6 µM
inotropic effect, comparison in words [1]: comparable biological and inotropic effects
arrhythmogenicity relative to digoxin, in words [1]: much less arrhythomogenic relative to the anitropic activity than digoxin

C[C@]12CC[C@H]3[C@@H](CC[C@H]4C=CCC[C@@]43CO)[C@@]1(O)CC[C@@H]2C1=CC(=O)OC1
ATP-ase inhibition, % reversibility of inhibition (ATP-ase): 81%
ATP-ase inhibition, % inhibition at a 1×10^-4 molar concentration (ATP-ase): 63%
Molar concentration causing 30% increase in contractility [1, 7]: inactive

C[C@@H]1O[C@@H](O[C@H]2C[C@@H](O)[C@]3(CO)[C@H]4[C@H](O)C[C@]5(C)[C@@H](C6=CC(=O)OC6)CC[C@]5(O)[C@@H]4CC[C@]3(O)C2)[C@H](O)[C@H](O)[C@H]1O [ouabain]
intravenous activity, onset and duration, in words [2]: high intravenous activity, fast onset and short duration of activity
oral activity, in words [2]: rather low oral activity

C[C@]12CC[C@@H]3[C@H]4CCCC[C@H]4CC[C@H]3[C@@]1(O)CC[C@@H]2C1=CC(=O)OC1 [drawing 23]
ATP-ase inhibition, % reversibility of inhibition (ATP-ase): 76%
ATP-ase inhibition, % inhibition at a 1×10^-4 molar concentration (ATP-ase): 59%

C[C@]12CC[C@H]3[C@@H](CC[C@@H]4CCCC[C@@]43COC=O)[C@@]1(O)CC[C@@H]2C1=CC(=O)OC1 [19-formate of 3-deoxycannogenol, 19-formyloxy-14-hydroxy-5β,14β-card-20(22)-enolide]
lipophilicity, in words [3]: more lipophilic
inotropic effect, comparison in words [1]: substantial inotropic activity which equals about that of digoxin
inotropic effect, comparison in words ([1]; listed as 19-formate ester of 3-deoxycannogenol): less active than 3-deoxycannogenol

C[C@]12CC[C@@H]3[C@H]4CCCC[C@H]4CC[C@H]3[C@@]1(O)CC[C@@H]2C1=CC(=O)OC1 [19-nor analog, 14-hydroxy-19-nor-5β,14β-card-20(22)-enolide]
heart-activity, in words [1]: substantial heart-activities

C[C@]12CC[C@H]3[C@@H](CC[C@@H]4CCCC[C@@]43CO)[C@@]1(O)CC[C@@H]2C1COC(=O)C1 (stereo partly drawn) [20(22)-dihydro analog, 3-deoxy-20.xi.,22-dihydrocannogenol]
heart-activity, in words [1]: substantial heart-activities

C[C@]12CC[C@H]3[C@@H](CC[C@@H]4C=CCC[C@@]43COC=O)[C@@]1(O)CC[C@@H]2C1=CC(=O)OC1
ATP-ase inhibition, % reversibility of inhibition (ATP-ase): 84%
ATP-ase inhibition, % inhibition at a 1×10^-4 molar concentration (ATP-ase): 41%

CC(=O)O[C@H]1CC[C@]2(C=O)[C@H]3CC[C@]4(C)[C@@H](C5=CC(=O)OC5)CC[C@]4(O)[C@@H]3CC[C@]2(O)C1 [strophanthidin 3-acetate]
intravenous activity, onset and duration, in words [2]: high intravenous activity, fast onset and short duration of activity
oral activity, in words [2]: rather low oral activity
number of washings to remove the compound from the bath / ease of removal (heart muscle): digitoxin > digoxin > 3-deoxycannogenol > 14,19-dihydroxy-5β,14β-carda-3,20(22)-dienolide > strophanthidin 3-acetate

C[C@]12CCCC[C@H]1CC[C@@H]1[C@@H]2CC[C@]2(C)[C@@H](C3=CC(=O)OC3)CC[C@]12O [3-deoxydigitoxigenin, 14-hydroxy-5β,14β-card-20(22)-enolide]
cardiac activity, in words (heart): significantly less active than digitoxigenin

CC(=O)O[C@@H]1C[C@]2(O)[C@H](CC[C@]3(C)[C@@H](c4ccc(=O)oc4)CC[C@@]32O)[C@@]2(C)CC[C@H](O)C=C12 [scillirosidin]
cardiac activity, in words (heart): high cardiac activity

C[C@]12CC[C@H]3[C@@H](CC[C@@H]4CCCC[C@@]43CO)[C@@]1(O)CC[C@@H]2C1=CC(=O)OC1 [3-deoxycannogenol, 19-hydroxy-3-deoxydigitoxigenin]
toxicity relative to digoxin (lethal dose), in words (cats [4]; cats): substantially lower than that of digoxin; also recorded: less than half as toxic as digoxin
therapeutic index, in words (cats [4]): better therapeutic index
emetic effects (cats [5]): no emetic effects
number of washings to remove the compound from the bath / ease of removal (heart muscle): more readily removed from the bath, containing the heart muscle, by repeated washing, than digoxin and less readily than the more polar strophanthidin 3-acetate; also recorded: digitoxin > digoxin > 3-deoxycannogenol > 14,19-dihydroxy-5β,14β-carda-3,20(22)-dienolide > strophanthidin 3-acetate
lipophilicity, in words [3]: considerably more lipohilic than the 19-oxygenated cardenolides obtained from natural sources
dissociation of inotropic activity from ATP-ase inhibition and lethality, in words [1]: strong dissociation of inotropic activity from ATP-ase inhibition and lethality
EC (50% increase in contractility) [1, 6]: 1.1 µM
EC (30% increase in contractility) ([1]; Table I, guinea pig atria, 30%): 0.72 µM
EC (80% increase in contractility) ([1]; Table I, guinea pig atria): 1.95 µM
arrhythmia, in words ([1]; at doses causing an increase of 90% of contractile force): no arrhythmia were observed
inotropic effect, comparison in words [1]: considerably more strongly than digoxin; also recorded: strong inotropic effect
arrhythmogenicity relative to digoxin, in words [1]: considerably less arrhythomogenic than digoxin
times more inotropic than digoxin ([1]; molar basis, relative to digoxin): 2-4 times

C[C@]12CC[C@H]3[C@@H](CC[C@@H]4C=CCC[C@@]43CO)[C@@]1(O)CC[C@@H]2C1=CC(=O)OC1 [14,19-dihydroxy-5β,14β-carda-3,20(22)-dienolide]
toxicity relative to digoxin, in words (ATP-ase; basis not stated, only ATP-ase inhibition tabulated): appears to be less toxic than digoxin
ATP-ase inhibition, comparison in words (ATP-ase): generally between those of 3-deoxycannogenol and digoxin
number of washings to remove the compound from the bath / ease of removal (heart muscle): digitoxin > digoxin > 3-deoxycannogenol > 14,19-dihydroxy-5β,14β-carda-3,20(22)-dienolide > strophanthidin 3-acetate
EC (50% increase in contractility) [1, 6]: 2.8 µM
EC (30% increase in contractility) ([1]; Table I, guinea pig atria, 30%): 2.2 µM
EC (80% increase in contractility) ([1]; Table I, guinea pig atria): 4 µM
inotropic effect, comparison in words [1]: generally between those of 3-deoxycannogenol and digoxin
inotropic effect, comparison in words ([1]; listed as 3(4)-anhydrocannogenol): greater inotropic activity than digoxin, though it is less active than 3-deoxycannogenol
arrhythmogenicity relative to digoxin, in words [1]: considerably less arrhythomogenic than digoxin

C[C@]12CC[C@H]3[C@@H](CC[C@H]4CCCC[C@@]43COC=O)[C@@]1(O)CC[C@@H]2C1=CC(=O)OC1
ATP-ase inhibition, % reversibility of inhibition (ATP-ase): 95%
ATP-ase inhibition, % inhibition at a 1×10^-4 molar concentration (ATP-ase): 42%
EC (30% increase in contractility) [1, 7]: 50 µM

CO[C@H]1C[C@H](O[C@H]2CC[C@]3(C)[C@H]4CC[C@]5(C)[C@@H](C6=CC(=O)OC6)CC[C@]5(O)[C@@H]4CC[C@]3(O)C2)O[C@H](C)[C@H]1O [cymaroside of 5β-hydroxydigitoxigenin]
cardiac activity, in words (heart): nearly twice as active as the cymaroside of digitoxigenin

C[C@]12CC[C@H]3[C@@H](CC[C@@H]4CCCC[C@@]43COC=O)[C@@]1(O)CC[C@@H]2C1=CC(=O)OC1 [drawing 19]
EC (30% increase in contractility) [1, 7]: 2.9 µM

C[C@]12CC[C@H]3[C@@H](CC[C@@H]4CCCC[C@@]43CO)[C@@]1(O)CC[C@@H]2C1COC(=O)C1 (stereo partly drawn) [drawing 21]
ATP-ase inhibition, % reversibility of inhibition (ATP-ase): 57%
ATP-ase inhibition, % inhibition at a 1×10^-4 molar concentration (ATP-ase): 45%
EC (30% increase in contractility) [1, 7]: 18.5 µM
EC (50% increase in contractility) ([1]; Table 2, preliminary biological tests): 40 µM

C[C@H]1O[C@@H](O[C@H]2[C@@H](O)C[C@H](O[C@H]3[C@@H](O)C[C@H](O[C@H]4CC[C@@]5(C)[C@H](CC[C@@H]6[C@@H]5CC[C@]5(C)[C@@H](C7=CC(=O)OC7)CC[C@]65O)C4)O[C@@H]3C)O[C@@H]2C)C[C@H](O)[C@@H]1O [digitoxin, reference compound]
number of washings to remove the compound from the bath / ease of removal (heart muscle): digitoxin > digoxin > 3-deoxycannogenol > 14,19-dihydroxy-5β,14β-carda-3,20(22)-dienolide > strophanthidin 3-acetate
